Source: US20250368640A1 (BIOFRONT LTD, priority 2022, published 2025)
pIC50: −log10 of the molar value. Like-named read-outs stand apart in the source and are kept apart here.

Key:
HPK1 [1] = target: T1, HPK1 (Homo sapiens (Human), UniProt Q92918); experiment: HPK1 enzyme inhibition assay (ADP-Glo); format: biochemical
Procedure: HPK1 Enzyme Inhibition Assay
The compound was dissolved in 100% DMSO at the concentration of 10 mM. The HPK1 protein was purchased from Signal Chem (M23-11G-10). 2.5 μL per well of 2×HPK1 protein was added to assay plate containing the test compound, centrifuged at 1500 rpm for 1 minute, and then incubated at 25° C. for 60 minutes. MBP protein was purchased from Signal Chem (M42-51N) and ATP was purchased from Promega (V9102). The two were added 2.5 μL per well mixture of 2×MBP (0.2 ug/ul) and ATP (20 μM), centrifuged at 1500 rpm for 1 minute, then incubated at 25° C. for 60 minutes. Then added 5 μL of ADP-Glo from Promega (V9102) to the assay plate and depleted the unconsumed ATP for 60 minutes. Then centrifuged at 1500 rpm for 1 minute and incubated at 25° C. for 60 minutes. Finally, 10 μL of the kinase assay reagent from Promega (V9102) was added to the assay plate to convert ADP to ATP, centrifuged at 1500 rpm for 1 minute, incubate at 25° C. for 40 minutes. After 40 minutes incubation, the […] was determined. Based on the results, the IC50 value of the compound was calculated.
Target sequence in this assay (Q92918 1-346 limits assumed): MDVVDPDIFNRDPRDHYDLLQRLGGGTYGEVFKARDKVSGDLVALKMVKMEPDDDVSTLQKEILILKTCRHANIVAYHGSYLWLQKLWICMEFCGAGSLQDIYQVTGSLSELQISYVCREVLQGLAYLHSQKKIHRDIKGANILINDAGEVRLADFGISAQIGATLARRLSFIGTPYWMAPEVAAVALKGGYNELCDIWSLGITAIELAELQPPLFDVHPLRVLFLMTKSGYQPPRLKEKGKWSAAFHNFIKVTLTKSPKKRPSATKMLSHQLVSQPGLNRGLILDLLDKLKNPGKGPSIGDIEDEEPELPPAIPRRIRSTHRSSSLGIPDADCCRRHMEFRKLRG

FLT3-ITD = FLT3-ITD (Homo sapiens, UniProt P36888, ITD); experiment: FLT3-ITD enzyme inhibition assay; format: biochemical
Procedure: FLT3-ITD Enzyme Inhibition Assay
The compound was dissolved in 100% DMSO at the concentration of 10 mM. The FLT3-ITD protein was purchased from Invitrogen (PV6191). 10 μL per well of 2.5×FLT3-ITD protein was added to assay plate containing the test compound, centrifuged at 1000 rpm for 1 minute, and then incubated at 25° C. for 10 minutes. Peptide 2 was purchased from GL Biochem (112394) and ATP was purchased from Promega (V9102). The two were added 15 μL per well mixture of 1.67× peptide 2 (final conc. is 3 μM) and ATP (final conc. is 97.2 μM), centrifuged at 1000 rpm for 1 minute, then incubated at 25° C. for 40 minutes. Then added 30 μL of stop buffer (100 mM HEPES pH7.5, 0.015% Brij-35, 0.2% Coating Reagent 3, 50 mM EDTA) to the assay plate and centrifuged at 1000 rpm for 1 minute. the product was determined. Based on the results, the IC50 value of the compound was calculated.

Aurora A [2] = target: T2, Aurora A (Homo sapiens (Human), UniProt O14965); experiment: Aurora A enzyme inhibition assay; format: biochemical
Procedure: Aurora A Enzyme Inhibition Assay
The compound was dissolved in 100% DMSO at the concentration of 10 mM. The Aurora A protein was purchased from Carna (05-101). 10 μL per well of 2.5×Aurora A protein was added to assay plate containing the test compound, centrifuged at 1000 rpm for 1 minute, and then incubated at 25° C. for 10 minutes. Peptide 21 was purchased from GL Biochem (116370) and ATP was purchased from Promega (V9102). The two were added 15 μL per well mixture of 1.67× peptide 21 (final conc. is 3 μM) and ATP (final conc. is 14.58 μM), centrifuged at 1000 rpm for 1 minute, then incubated at 25° C. for 40 minutes. Then added 30 μL of stop buffer (100 mM HEPES pH7.5, 0.015% Brij-35, 0.2% Coating Reagent 3, 50 mM EDTA) to the assay plate and centrifuged at 1000 rpm for 1 minute. the product was determined. Based on the results, the IC50 value of the compound was calculated.

HPK1 [3] = target: T1, HPK1; experiment: HPK1 degradation assay (western blot, human PBMC); format: cell-based; conditions: for Dmax: read-out: HPK1 Dmax
Procedure: Frozen human PBMC were purchased from Shanghai OribioTech and recovered with culture medium (RMPI1640) prior to use. The cells were then incubated with a variety of concentrations of compound. After incubation, the cells were collected and lysed. The protein concentration was determined by BCA protein assay kit from Thermo (23227). The HPK1 protein level was determined by western blots, using anti-human HPK1 polyclonal antibody from CST (4472S). Proteins were loaded into each well of the pre-casting gels and subjected to electrophoretic separation by SDS-PAGE. The protein resolved by SDS-PAGE were transferred to PVDF, blocked by 5% skim milk, and probed with anti-human HPK1 antibody or β-actin antibody from CST (3700S), using standard western blotting procedure.
Target sequence in this assay (Q92918 whole entry): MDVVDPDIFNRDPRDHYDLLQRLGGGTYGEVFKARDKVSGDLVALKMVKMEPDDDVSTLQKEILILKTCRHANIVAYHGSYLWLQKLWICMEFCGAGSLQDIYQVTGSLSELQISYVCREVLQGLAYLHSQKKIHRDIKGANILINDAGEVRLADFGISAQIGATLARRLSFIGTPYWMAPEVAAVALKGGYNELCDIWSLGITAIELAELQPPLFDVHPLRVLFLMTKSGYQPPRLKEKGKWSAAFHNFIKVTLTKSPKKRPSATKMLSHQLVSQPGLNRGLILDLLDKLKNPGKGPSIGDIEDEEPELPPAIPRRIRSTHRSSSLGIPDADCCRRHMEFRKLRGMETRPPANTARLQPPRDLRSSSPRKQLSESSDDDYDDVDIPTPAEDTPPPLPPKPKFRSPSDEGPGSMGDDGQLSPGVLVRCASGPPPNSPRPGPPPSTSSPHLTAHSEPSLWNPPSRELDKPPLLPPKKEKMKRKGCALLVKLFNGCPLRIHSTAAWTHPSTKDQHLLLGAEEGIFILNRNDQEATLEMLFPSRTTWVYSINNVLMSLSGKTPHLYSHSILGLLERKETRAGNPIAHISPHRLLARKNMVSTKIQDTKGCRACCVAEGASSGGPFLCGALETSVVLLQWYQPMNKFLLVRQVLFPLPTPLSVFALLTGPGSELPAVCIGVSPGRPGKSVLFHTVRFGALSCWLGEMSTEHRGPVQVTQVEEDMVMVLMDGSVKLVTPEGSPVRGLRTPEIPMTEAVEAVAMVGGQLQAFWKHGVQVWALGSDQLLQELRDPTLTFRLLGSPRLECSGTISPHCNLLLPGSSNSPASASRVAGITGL

FLT3 = FLT3 degradation assay (western blot, MV-411 cells); format: cell-based, human
Procedure: (§1) MV-411 cells were cultured with medium (IMDM) prior to use. Cells were then incubated with a variety of concentrations of compound. After incubation, the cells were collected and lysed. The protein concentration was determined by BCA protein assay kit from Thermo (23227). The FLT3 protein level was determined by western blots, using anti-human FLT3 monoclonal antibody from CST (3462S). Proteins were loaded into each well of the pre-casting gels and subjected to electrophoretic separation by SDS-PAGE. The protein resolved by SDS-PAGE were transferred to PVDF, blocked by 5% skim milk, and probed with anti-human FLT3 antibody or -actin antibody from CST (3700S), using standard western blotting procedure.

Aurora A [4] = target: T2, Aurora A; experiment: Aurora A degradation assay (western blot); format: cell-based; conditions: for DC50: read-out: Aurora A DC50; for Dmax: read-out: Aurora A Dmax
Procedure: Aurora A Degradation Assay
as §1, with “IMR32” for “MV-411”, “cultured with medium (MEM), Huh7 cells were cultured with medium (DMEM) and HL-60 cells were culture” for “cultured”, “AURKA” for “FLT3”, “(14475S).” for “(3462S).”, “β-actin” for “-actin”, “(3700S) or COX IV antibody from CST (4850S),” for “(3700S),”

MEK 1/2 = MEK 1/2 degradation assay (western blot); format: cell-based, human
Procedure: MEK 1/2 Degradation Assay
as §1, with “(IMDM) and IMR32 cells were cultured with medium (MEM)” for “(IMDM)”, “anti-human MEK 1/2 polyclonal” for “anti-human FLT3 monoclonal”, “CST (9122S).” for “CST (3462S).”, “anti-human MEK1/2” for “anti-human FLT3”, “or β-actin” for “or -actin”, “CST (3700S) and COX IV antibody from CST (4850S),” for “CST (3700S),”

[5] = protein degradation, human PBMC, read-out: HPK1 DC50
[6] = read-out: FLT3 DC50, protein degradation
[7] = protein degradation, IMR32, Huh7 or HL-60 cells
[8] = protein degradation, MV-411 or IMR32 cells
[9] = read-out: MEK 1/2 DC50; protein degradation, MV-411 or IMR32 cells
[10] = enzyme inhibition, read-out: FLT3-ITD IC50
[11] = protein degradation, class symbol, read-out: FLT3 DC50 (nM)/Dmax (%)
[12] = protein degradation, MV-411 or IMR32 cells; read-out: MEK 1/2 DC50
[13] = protein degradation, human PBMC

Sequence of FLT3-ITD (P36888 whole entry, looked up, change not shown): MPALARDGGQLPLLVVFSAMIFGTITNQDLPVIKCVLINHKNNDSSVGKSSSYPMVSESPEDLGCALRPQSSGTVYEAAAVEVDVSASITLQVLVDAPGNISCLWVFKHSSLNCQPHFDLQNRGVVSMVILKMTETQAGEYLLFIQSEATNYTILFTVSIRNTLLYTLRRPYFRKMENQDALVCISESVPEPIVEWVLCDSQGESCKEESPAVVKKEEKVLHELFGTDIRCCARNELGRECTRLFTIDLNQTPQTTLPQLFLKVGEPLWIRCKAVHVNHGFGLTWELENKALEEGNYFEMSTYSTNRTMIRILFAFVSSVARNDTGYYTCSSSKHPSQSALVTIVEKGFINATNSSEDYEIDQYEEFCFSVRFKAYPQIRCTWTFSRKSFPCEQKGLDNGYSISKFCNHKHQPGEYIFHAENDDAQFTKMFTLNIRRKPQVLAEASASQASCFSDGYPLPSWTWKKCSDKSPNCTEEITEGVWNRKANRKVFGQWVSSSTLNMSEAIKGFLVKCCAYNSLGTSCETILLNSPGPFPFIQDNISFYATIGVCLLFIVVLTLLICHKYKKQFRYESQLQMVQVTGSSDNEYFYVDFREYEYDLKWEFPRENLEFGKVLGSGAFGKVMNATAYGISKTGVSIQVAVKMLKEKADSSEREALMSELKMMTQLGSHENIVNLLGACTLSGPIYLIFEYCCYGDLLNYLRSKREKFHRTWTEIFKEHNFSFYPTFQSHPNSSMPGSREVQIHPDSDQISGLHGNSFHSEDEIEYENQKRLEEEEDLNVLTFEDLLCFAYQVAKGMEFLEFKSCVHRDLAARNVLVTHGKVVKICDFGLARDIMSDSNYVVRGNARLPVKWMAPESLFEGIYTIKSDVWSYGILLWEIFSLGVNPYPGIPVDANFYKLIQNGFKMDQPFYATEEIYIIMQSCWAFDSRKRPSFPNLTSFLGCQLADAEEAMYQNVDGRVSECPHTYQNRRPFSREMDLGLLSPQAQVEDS
T2 sequence (O14965 whole entry): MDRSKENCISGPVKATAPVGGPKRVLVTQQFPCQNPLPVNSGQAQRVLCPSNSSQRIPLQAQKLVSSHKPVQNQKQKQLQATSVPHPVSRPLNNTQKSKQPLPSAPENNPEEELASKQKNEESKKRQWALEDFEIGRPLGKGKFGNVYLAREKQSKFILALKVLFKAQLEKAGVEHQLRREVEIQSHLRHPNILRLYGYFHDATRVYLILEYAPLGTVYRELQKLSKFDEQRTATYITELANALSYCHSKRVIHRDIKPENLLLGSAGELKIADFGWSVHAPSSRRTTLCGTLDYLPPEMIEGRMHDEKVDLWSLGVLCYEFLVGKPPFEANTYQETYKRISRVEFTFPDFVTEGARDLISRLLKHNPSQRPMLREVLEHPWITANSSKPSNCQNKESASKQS

Compound	pIC50 (HPK1 [1])	pIC50 (FLT3-ITD)	pIC50 (Aurora A [2])	DC50 (HPK1 [3]; [5]) [nM]	Dmax (HPK1 [3]) [%]	FLT3 Dmax (FLT3; protein degradation) [%]	DC50 (FLT3; [6]) [nM]	DC50 (Aurora A [4]; [7]) [nM]	Dmax (Aurora A [4]) [%]	MEK 1/2 Dmax (MEK 1/2; [8]) [%]	DC50 (MEK 1/2; [9]) [nM]	pIC50 (FLT3-ITD; [10])	DC50 (MEK 1/2; read-out: MEK 1/2 DC50 (nM)/Dmax (%); protein degradation, MV-411 or IMR32 cells; class symbol) [nM]	DC50 (HPK1 [3]; protein degradation, human PBMC, class symbol, read-out: HPK1 DC50 (nM)/Dmax (%)) [nM]	DC50 (FLT3; [11]) [nM]	Dmax (Aurora A [4]; [7]) [%]	DC50 (MEK 1/2; [12]) [nM]	Dmax (HPK1 [3]; [13]) [%]	DC50 (FLT3; protein degradation, read-out: FLT3 DC50) [nM]
CCc1c[nH]c2ncc(-c3cccc(N4CCCN(CC5CCN(c6ccc7c(c6)C(=O)N(C6CCC(=O)NC6=O)C7=O)CC5)C4=O)c3)c(Cl)c12 (centres unmarked) [Example 8, 5-(4-((3-(3-(4-chloro-3-ethyl-1H-pyrrolo [2,3-b]pyridin-5-yl)phenyl)-2-oxotetrahydropyrimidin-1 (2H)-yl)methyl)piperidin-1-yl)-2-(2,6-dioxopiperidin-3-yl) isoindoline-1,3-dione]	7.80	8.24	6.96	85	95	95	8	< 20	95	91	82	–	–	–	–	–	–	–	–
O=C1CCC(N2C(=O)c3cc(F)c(N4CCC(CCN5CCCN(c6cccc(-c7cnc8[nH]cc(C9CC9)c8c7Cl)c6)C5=O)CC4)cc3C2=O)C(=O)N1 (centres unmarked) [Example 9, 5-(4-(2-(3-(3-(4-chloro-3-cyclopropyl-1H-pyrrolo [2,3-b]pyridin-5-yl)phenyl)-2-oxotetrahydropyrimidin-1 (2H)-yl)ethyl)piperidin-1-yl)-2-(2,6-dioxopiperidin-3-yl)-6-fluoroisoindoline-1,3-dione]	7.20	–	6.88	294	50	60	100	> 1000	50	–	–	7.44	> 10000	–	–	–	–	–	–
O=C1CCC(N2Cc3ccc(N4CCC(CN5CCCN(c6cccc(-c7cnc8[nH]cc(C9CC9)c8c7Cl)c6)C5=O)CC4)cc3C2=O)C(=O)N1 (centres unmarked) [Example 11]	7.87	–	7.67	–	–	–	–	9	–	30	–	7.68	–	> 10000	> 10000	50	49	–	–
O=C1CCC(N2Cc3ccc(N4CCC(CN5CCCN(c6cccc(-c7cnc8[nH]cc(CC(F)F)c8c7Cl)c6)C5=O)CC4)cc3C2=O)C(=O)N1 (centres unmarked) [Example 13]	7.90	–	7.84	11	–	–	–	3	–	30	–	7.62	–	–	> 10000	70	< 1	50	–
CCc1c[nH]c2ncc(-c3cccc(N4CCCN(CC5CCN(c6ccc(NC7CCC(=O)NC7=O)cc6F)CC5)C4=O)c3)c(Cl)c12 (centres unmarked) [Example 15, 3-((4-(4-((3-(3-(4-chloro-3-ethyl-1H-pyrrolo [2,3-b]pyridin-5-yl)phenyl)-2-oxotetrahydropyrimidin-1 (2H)-yl)methyl)piperidin-1-yl)-3-fluorophenyl)amino) piperidine-2,6-dione]	8.34	8.06	7.70	6	80	34	0.02	9.6	82	38	1	–	–	–	–	–	–	–	–
CCc1c[nH]c2ncc(-c3cccc(N4CCCN(CCC5CCN(c6ccc(NC7CCC(=O)NC7=O)cc6F)CC5)C4=O)c3)c(Cl)c12 (centres unmarked) [Example 16, 3-((4-(4-(2-(3-(3-(4-chloro-3-ethyl-1H-pyrrolo [2,3-b]pyridin-5-yl)phenyl)-2-oxotetrahydropyrimidin-1 (2H)-yl)ethyl)piperidin-1-yl)-3-fluorophenyl)amino) piperidine-2,6-dione]	8.26	7.91	7.39	100	64	17	115	4.6	75	75	4.6	–	–	–	–	–	–	–	–
CCc1c[nH]c2ncc(-c3cccc(N4CCCN(CCN5CCN(c6ccc(C7CCC(=O)NC7=O)cc6)CC5)C4=O)c3)c(Cl)c12 (centres unmarked) [Example 17]	8.54	–	7.78	2.3	–	80	–	1	–	47	–	7.76	–	–	–	50	1	91	8.7
CCc1c[nH]c2ncc(-c3cccc(N4CCCN(CCN5CCN(c6ccc(NC7CCC(=O)NC7=O)cc6F)CC5)C4=O)c3)c(Cl)c12 (centres unmarked) [Example 18]	8.60	–	7.97	1	–	–	–	1.1	–	74	–	8.27	–	–	> 10000	74	1	52	–
